Source: patent US11753408B2, “Compounds and method for blocking transmission of malarial parasite” (The United States of America, as represented by the …, priority 2016, dated 2023)
Where two headings read alike, the source gives them in different places.

Columns and labels:
[1] = tested on: Stage III-V gametocytes (blood stage P. falciparum parasites); experiment: In vitro drug activity on gametocytes (AlamarBlue viability assay); type: cell-based, Plasmodium falciparum; conditions: read-out: Gametocyte EC50
Method: Cell culture. Asexual parasites of P. falciparum strain 3D7 were cultured as described previously [Trager W, et al., Journal of Parasitology 2005, 91: 484-486], Stage III-V gametocytes were selected and enriched with 3-day treatment with 50 mM N-acetylglucosamine (NAG) and the following Percoll density gradient centrifugation after gametocyte production [Tanaka T Q, et al., Molecular and Biochemical Parasitology, 2011, 111: 160-163], Gametocytes of HB3 and Dd2 strains were produced and then set up for assay in a similar process. HepG2 cells (ATCC, cat. no. 77400) were cultured in 175-cm^2 tissue culture flasks with 30 ml growth medium at 37° C. in a 5% CO2 humidified atmosphere. Growth medium was made with Dulbecco's Modified Eagle Medium with 10% fetal bovine serum (FBS). Growth medium was replaced every other day and cells were passed at 75% confluence.
Compound screening experiments were performed as previously described [Tanaka T Q et al., Molecular and Biochemical Parasitology, 2013, 3188: 20-25], Briefly, 2.5 μl/well incomplete medium was dispensed into each well of 1,536-well plates using the Multidrop Combi followed by 23 nl compound transferring using the NX-TR Pintool (WAKO Scientific Solutions, San Diego, Calif.). 2.5 μl/well of gametocytes was dispensed with a seeding density of 20,000 cells/well using the Multidrop Combi. The assay plates were incubated for 72 h at 37° C. with 5% CO2. After addition of 5 μl/well of 2× AlamarBlue dye (Life Technologies, cat. no. DALI 100), the plates were incubated for 24 h at 37° C. with 5% CO2 and were read in a fluorescence detection mode (Ex=525 nm, Em=598 nm) on a ViewLux plate reader (PerkinElmer).
Stage III-V gametocytes (blood stage P. falciparum parasites) were enriched with treatment with 50 mM N-acetylglucosamine (NAG) and Percoll density gradient centrifugation as described previously^1. Briefly, 2.5 μl/well incomplete medium was dispensed into each well of 1,536-well plates using the Multidrop Combi followed by 23 nl compound transfer using the NX-TR Pintool (WAKO Scientific Solutions, San Diego, Calif.). Then, 2.5 μl/well of gametocytes was dispensed with a seeding density of 20,000 cells/well using the Multidrop Combi. The assay plates were incubated for 72 h at 37° C. with 5% CO2. After addition of 5 μl/well of 2× AlamarBlue dye (Life Technologies, cat. no. DALI 100), the plates were incubated for 24 h at 37° C. with 5% CO2 and then were read in a fluorescence detection mode (Ex=525 nm, Em=598 nm) on a ViewLux plate reader (PerkinElmer).

Solubility at pH 7.4 = type: physicochemical
PAMPA permeability = type: in vitro ADME; conditions: PAMPA
[2] = Microsomal stability (rat); type: in vitro ADME; conditions: rat microsomes
[3] = tested on: Asexual parasites of P. falciparum strain 3D7; experiment: In vitro drug activity on asexual parasites (SYBR Green assay); type: cell-based, Plasmodium falciparum
Method in brief: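 SYBR Green I fluorescence (ex 490, em 520 nm) was read after freeze-thaw lysis and 30 min staining at room temperature. Before that, drug-treated cultures (0.5% parasitemia, 2% hematocrit, DMSO ≤0.5%) were incubated 72 h, in duplicate.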

mTOR = mTOR (Homo sapiens, UniProt P42345); experiment: mTOR activity (no method described); type: biochemical
[4] = P. falciparum stage III-V gametocytes, 72 h incubation, AlamarBlue
[5] = P. falciparum 3D7 asexual parasites, 72 h, SYBR Green

| Compound | Sol @ pH 7.4 (ug/mL) (Solubility at pH 7.4) | PAMPA Permeability (×10^6 cm/s) (PAMPA permeability) | Microsomal Stability (rat) T1/2 [2] [min] | EC50 [3] [nM] | mTOR (mTOR) | Sol @ pH 7.4 (Solubility at pH 7.4) [ug/mL] | EC50 [3, 5] [nM] | EC50 [1, 4] [nM] | EC50 [1] [nM] |
| --- | --- | --- | --- | --- | --- | --- | --- | --- | --- |
| CN(C)Cc1ccc(-c2ccc3ncc4ccc(=O)n(-c5ccc(N6CCOCC6)c(C#N)c5)c4c3c2)cc1 [Compound 5] | 7.03 | 725.27 ×10^6 cm/s | – | – | – | – | – | 508 | – |
| CCS(=O)(=O)c1ccc(-n2c(=O)ccc3cnc4ccc(-c5ccc(Cl)cc5)cc4c32)cc1 [Compound 27] | <1.0 | <1.0 ×10^6 cm/s | >30.0 | – | – | – | – | 108 | – |
| CN(C)Cc1ccc(-c2ccc3ncc4ccc(=O)n(-c5cccc(S(C)(=O)=O)c5)c4c3c2)cc1 [Compound 55] | >71.00 | 788.14 ×10^6 cm/s | 9.45 | – | – | – | – | 5340 | – |
| CS(=O)(=O)c1cccc(-n2c(=O)ccc3cnc4ccc(-c5ccc(Cl)cc5)cc4c32)c1 [Compound 56] | 0.01 | 716.98 ×10^6 cm/s | >30.00 | – | – | – | – | 1550 | – |
| CS(=O)(=O)c1ccc(-n2c(=O)ccc3cnc4ccc(-c5ccc(Cl)cc5)cc4c32)cc1N1CCOCC1 [Compound 58] | <0.10 | 1527.98 ×10^6 cm/s | 13.5 | – | – | – | – | 890 | – |
| C[S+]([O-])c1ccc(-n2c(=O)ccc3cnc4ccc(-c5ccc(N)nc5)cc4c32)cc1 (stereo not shown) [Compound 81] | 10 | 5.1 ×10^6 cm/s | – | – | – | – | – | 33.9 | – |
| O=C(c1ccc(-n2c(=O)ccc3c[n+]([O-])c4ccc(-c5ccc(Cl)cc5)cc4c32)cc1)N1CCOCC1 [Compound 148] | – | – | >30.0 | 601 | 18.17 µM | 21.8 | – | – | 4580 |
| NC(=O)c1cc(-c2ccc3ncc4ccc(=O)n(-c5ccc(C(=O)N6CCOCC6)cc5)c4c3c2)ccc1Cl [Compound 149] | – | – | >30.0 | 409 | 6.235 µM | 8.8 | – | – | 840 |
| CCNC(=O)c1cc(-c2ccc3ncc4ccc(=O)n(-c5ccc(C(=O)N6CCOCC6)cc5)c4c3c2)ccc1Cl [Compound 150] | – | – | 2.4 | 3820 | 7.873 µM | 3.9 | – | – | 6230 |
| O=C(c1ccc(-n2c(=O)ccc3cnc4ccc(-c5ccc(Cl)cc5)nc4c32)cc1)N1CCOCC1 [Compound 151] | – | – | 3.5 | 19.1 | 3.72 µM | <1.0 | – | – | 52.7 |
| COC(=O)c1cc(-c2ccc3ncc4ccc(=O)n(-c5ccc(C(=O)N6CCOCC6)cc5)c4c3c2)ccc1Cl [Compound 152] | – | – | 3.3 | 2200 | 0.7962 µM | <1.0 | – | – | 4040 |
| CCN(CC)Cc1ccc(-c2ccc3ncc4ccc(=O)n(-c5ccc(C(=O)N6CCOCC6)cc5)c4c3c2)cc1 [Compound 175] | – | – | >30.00 | 731 | 11.78 µM | 66.62 | – | – | 1620 |
| O=C(c1ccc(-n2c(=O)ccc3cnc4ccc(-c5ccc(CCN6CCOCC6)cc5)cc4c32)cc1)N1CCOCC1 [Compound 182] | – | – | 10.8 | 459 | 1.439 µM | 1.1 | – | – | 1480 |
| O=C(c1ccc(-n2c(=O)ccc3cnc4ccc(Br)cc4c32)cc1)N1CCOCC1 [Compound 337] | – | – | >30.0 | 1570 | 3.229 µM | >68.0 | – | – | 6230 |
| CN(C)Cc1ccc(-c2ccc3ncc4ccc(=O)n(-c5ccc6c(c5)CCC(=O)N6C)c4c3c2)cc1 [Compound 358] | >72.00 | 1209.2 ×10^6 cm/s | – | – | – | – | 878 | 2180 | – |
| CCN(CC)Cc1ccc(-c2ccc3ncc4ccc(=O)n(-c5ccc6c(c5)CNC6=O)c4c3c2)cc1 [Compound 363] | 57.74 | 8.76 ×10^6 cm/s | – | – | – | – | 450 | 860 | – |

More lines, main results first:

| Sol @ pH 7.4 (ug/mL) (Solubility at pH 7.4) | PAMPA Permeability (×10^6 cm/s) (PAMPA permeability) | Microsomal Stability (rat) T1/2 [2] [min] | EC50 [3] [nM] | mTOR (mTOR) | Sol @ pH 7.4 (Solubility at pH 7.4) [ug/mL] | EC50 [3, 5] [nM] | Compound | EC50 [1, 4] [nM] | EC50 [1] [nM] |
| --- | --- | --- | --- | --- | --- | --- | --- | --- | --- |
| 55.9 | <1.8 ×10^6 cm/s | – | – | – | – | 482 | O=C(O)CN1Cc2cc(-n3c(=O)ccc4cnc5ccc(-c6ccc(Cl)cc6)cc5c43)ccc2C1=O [Compound 365] | 30600 | – |
| 14.8 | 47.8 ×10^6 cm/s | – | – | – | – | 1240 | COC(=O)CN1Cc2cc(-n3c(=O)ccc4cnc5ccc(-c6ccc(CN(C)C)cc6)cc5c43)ccc2C1=O [Compound 366] | 3760 | – |
| 11.8 | 2 ×10^6 cm/s | – | – | – | – | 28.2 | Nc1ccc(-c2ccc3ncc4ccc(=O)n(-c5ccc6c(c5)CNC6=O)c4c3c2)cn1 [Compound 388] | 88.2 | – |
| <1.0 | <9.7 ×10^6 cm/s | – | – | – | – | 21.8 | Nc1ccc(-c2ccc3ncc4ccc(=O)n(-c5ccc6c(c5)CC(=O)N6)c4c3c2)cn1 [Compound 389] | 65.3 | – |
| 6.26 | <1.10 ×10^6 cm/s | – | – | – | – | 9.3 | Nc1ccc(-c2ccc3ncc4ccc(=O)n(-c5ccc6c(c5)CCNC6=O)c4c3c2)cn1 [Compound 393] | 30.7 | – |
| – | – | >30.0 | 268 | Inactive | <1.0 | – | N#Cc1cccc(-n2c(=O)[nH]c3cnc4ccc(-c5ccc(Cl)cc5)cc4c32)c1 [Compound 397] | – | 232 |
| – | – | >30.0 | 105 | 2.471 µM | <1.0 | – | Cn1c(=O)n(-c2cccc(C#N)c2)c2c3cc(-c4ccc(Cl)cc4)ccc3ncc21 [Compound 398] | – | 194 |
| – | – | >30.0 | 219 | 100 µM | <1.0 | – | Cc1ccc(C#N)cc1-n1c(=O)[nH]c2cnc3ccc(-c4ccc(Cl)cc4)cc3c21 [Compound 399] | – | 522 |
| – | – | >30.0 | 125 | 100 µM | 3.1 | – | COc1cc(-c2ccc3ncc4c(c3c2)n(-c2cccc(C#N)c2)c(=O)n4C)ccc1Cl [Compound 403] | – | 262 |
| – | – | 2.4 | 298 | 100 µM | <0.1 | – | CC(=O)n1c(=O)n(-c2cccc(C#N)c2)c2c3cc(-c4ccc(Cl)cc4)ccc3ncc21 [Compound 405] | – | 666 |
| – | – | 19.4 | 8.46 | 0.2165 µM | <1 | – | Cn1c(=O)n(-c2ccc(N3CCNCC3)c(C#N)c2)c2c3cc(-c4ccc(Cl)cc4)ccc3ncc21 [Compound 406] | – | 13.1 |
| – | – | >30 | 52.4 | 50 µM | <1 | – | COc1cc(-c2ccc3ncc4c(c3c2)n(-c2cc(C#N)ccc2C)c(=O)n4C)ccc1Cl [Compound 407] | – | 104 |
| – | – | >30.0 | 787 | 100 µM | <1.0 | – | CCn1c(=O)n(-c2cccc(C#N)c2)c2c3cc(-c4ccc(Cl)cc4)ccc3ncc21 [Compound 440] | – | 2180 |
